According to US20050112573A1, “Method of detecting toxic substance” (priority 2001, published 2005):

Tested on: yeast genes (level of expressed mRNA)
Test: DNA chip analysis of expressed mRNA of yeast genes after 2 h culture with a toxic chemical substance
Type: cell-based, Saccharomyces cerevisiae S288C
Settings: for The level of expressed mRNA in the presence of chemical substance/ (ratio to absence of chemical substance): stress protein genes, DNA chip; for The level of expressed mRNA in the presence of chemical substance/ in its absence, gene YPR184W: yeast gene YPR184W
Method in brief: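 S. cerevisiae S288C grown at 25° C in YPD; toxicant added at log phase at growth-inhibitory, non-lethal levels for 2 h, untreated cells as control. Poly(A) mRNA reverse-transcribed with Cy3/Cy5-dUTP, hybridized to whole-genome chip at 65° C >12 h; value is fluorescence ratio versus untreated.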

C=CC=O [(14), acrolein]
0.6: The level of expressed mRNA in the presence of chemical substance/The level of expressed mRNA in the absence of chemical substance (yeast gene YOR355W) | The level of expressed mRNA in the presence of chemical substance/The level of expressed mRNA in the absence of chemical substance (yeast gene YOR383C)
2.2: The level of expressed mRNA in the presence of chemical substance/The level of expressed mRNA in the absence of chemical substance (yeast gene YOR157C)
1.9: The level of expressed mRNA in the presence of chemical substance/The level of expressed mRNA in the absence of chemical substance (yeast gene YNL333W)
0.9: The level of expressed mRNA in the presence of chemical substance/The level of expressed mRNA in the absence of chemical substance (yeast gene YOL013C) | The level of expressed mRNA in the presence of chemical substance/ (in its absence), gene YOL108C (yeast gene YOL108C, ratio of DNA chip fluorescence intensity to that without chemical substance) | The level of expressed mRNA in the presence of chemical substance/ (in its absence), gene YOL116W (yeast gene YOL116W, ratio of DNA chip fluorescence intensity to that without chemical substance) | The level of expressed mRNA in the presence of chemical substance/ (ratio to absence of chemical substance) (yeast gene YOL161C) | The level of expressed mRNA in the presence of chemical substance/ (ratio to absence of chemical substance) (yeast gene YOR008C) | The level of expressed mRNA in the presence of chemical substance/The level of expressed mRNA in the absence of chemical substance (yeast gene YOR181W) | The level of expressed mRNA in the presence of chemical substance/ (in its absence), gene YOR363C (yeast gene YOR363C, ratio of DNA chip fluorescence intensity to that without chemical substance)
1.4: The level of expressed mRNA in the presence of chemical substance/ (ratio to absence), gene YOL096C (yeast gene YOL096C, mitochondria-located protein genes, 2 h culture with chemical) | The level of expressed mRNA in the presence of chemical substance/ (in its absence), gene YOL096C (yeast gene YOL096C, ratio of DNA chip fluorescence intensity to that without chemical substance) | The level of expressed mRNA in the presence of chemical substance/ (ratio to absence), gene YPL134C (yeast gene YPL134C, mitochondria-located protein genes, 2 h culture with chemical)
0.4: The level of expressed mRNA in the presence of chemical substance/The level of expressed mRNA in the absence of chemical substance (yeast gene YNL007C) | The level of expressed mRNA in the presence of chemical substance/ (ratio to absence of chemical substance) (yeast gene YOR010C)
1.1: The level of expressed mRNA in the presence of chemical substance/The level of expressed mRNA in the absence of chemical substance (yeast gene YNL093W) | The level of expressed mRNA in the presence of chemical substance/The level of expressed mRNA in the absence of chemical substance (yeast gene YOR198C) | The level of expressed mRNA in the presence of chemical substance/ (in its absence), gene YOR251C (yeast gene YOR251C, ratio of DNA chip fluorescence intensity to that without chemical substance) | The level of expressed mRNA in the presence of chemical substance/ (ratio to absence), gene YPL040C (yeast gene YPL040C, mitochondria-located protein genes, 2 h culture with chemical) | The level of expressed mRNA in the presence of chemical substance/ (ratio to absence of chemical substance) (yeast gene YPL140C) | The level of expressed mRNA in the presence of chemical substance/ (ratio to absence of chemical substance) (yeast gene YPL194W)
0.7: The level of expressed mRNA in the presence of chemical substance/ (ratio to absence), gene YNL073W (yeast gene YNL073W, mitochondria-located protein genes, 2 h culture with chemical) | The level of expressed mRNA in the presence of chemical substance/ (in its absence), gene YNL192W (yeast gene YNL192W, ratio of DNA chip fluorescence intensity to that without chemical substance) | The level of expressed mRNA in the presence of chemical substance/ (ratio to absence of chemical substance) (yeast gene YOR009W) | The level of expressed mRNA in the presence of chemical substance/The level of expressed mRNA in the absence of chemical substance (yeast gene YOR132W)
1.6: The level of expressed mRNA in the presence of chemical substance/ (in its absence), gene YPL148C (yeast gene YPL148C, ratio of DNA chip fluorescence intensity to that without chemical substance)
1.2: The level of expressed mRNA in the presence of chemical substance/ (in its absence), gene YNL025C (yeast gene YNL025C, ratio of DNA chip fluorescence intensity to that without chemical substance) | The level of expressed mRNA in the presence of chemical substance/The level of expressed mRNA in the absence of chemical substance (yeast gene YOR036W) | The level of expressed mRNA in the presence of chemical substance/ (in its absence), gene YOR103C (yeast gene YOR103C, ratio of DNA chip fluorescence intensity to that without chemical substance) | The level of expressed mRNA in the presence of chemical substance/The level of expressed mRNA in the absence of chemical substance (yeast gene YOR259C) | The level of expressed mRNA in the presence of chemical substance/ (in its absence), gene YOR348C (yeast gene YOR348C, ratio of DNA chip fluorescence intensity to that without chemical substance)
1.3: The level of expressed mRNA in the presence of chemical substance/The level of expressed mRNA in the absence of chemical substance (yeast gene YNR010W) | The level of expressed mRNA in the presence of chemical substance/The level of expressed mRNA in the absence of chemical substance (yeast gene YOL164W) | The level of expressed mRNA in the presence of chemical substance/ (ratio to absence of chemical substance) (yeast gene YPL059W) | The level of expressed mRNA in the presence of chemical substance/The level of expressed mRNA in the absence of chemical substance (yeast gene YPL109C) | The level of expressed mRNA in the presence of chemical substance/ (ratio to absence of chemical substance) (yeast gene YPR005C) | The level of expressed mRNA in the presence of chemical substance/ in its absence, gene YPR184W (energy system protein genes, 2 h culture with the chemical, ratio to control without chemical) | The level of expressed mRNA in the presence of chemical substance/ in its absence, gene YPR184W (ratio of DNA chip fluorescence intensity to that without chemical substance)
1.8: The level of expressed mRNA in the presence of chemical substance/The level of expressed mRNA in the absence of chemical substance (yeast gene YOR261C) | The level of expressed mRNA in the presence of chemical substance/The level of expressed mRNA in the absence of chemical substance (yeast gene YPR103W)
1.0: The level of expressed mRNA in the presence of chemical substance/ (in its absence), gene YNR072W (yeast gene YNR072W, ratio of DNA chip fluorescence intensity to that without chemical substance) | The level of expressed mRNA in the presence of chemical substance/The level of expressed mRNA in the absence of chemical substance (yeast gene YOR117W) | The level of expressed mRNA in the presence of chemical substance/ (in its absence), gene YOR180C (yeast gene YOR180C, ratio of DNA chip fluorescence intensity to that without chemical substance) | The level of expressed mRNA in the presence of chemical substance/ (ratio to absence), gene YOR316C (yeast gene YOR316C, mitochondria-located protein genes, 2 h culture with chemical) | The level of expressed mRNA in the presence of chemical substance/The level of expressed mRNA in the absence of chemical substance (yeast gene YPL149W) | The level of expressed mRNA in the presence of chemical substance/The level of expressed mRNA in the absence of chemical substance (yeast gene YPR108W) | The level of expressed mRNA in the presence of chemical substance/ (in its absence), gene YPR165W (yeast gene YPR165W, ratio of DNA chip fluorescence intensity to that without chemical substance)
2.1: The level of expressed mRNA in the presence of chemical substance/The level of expressed mRNA in the absence of chemical substance (yeast gene YNR069C) | The level of expressed mRNA in the presence of chemical substance/The level of expressed mRNA in the absence of chemical substance (yeast gene YOR185C)
0.8: The level of expressed mRNA in the presence of chemical substance/The level of expressed mRNA in the absence of chemical substance (yeast gene YNL006W) | The level of expressed mRNA in the presence of chemical substance/ (ratio to absence of chemical substance) (yeast gene YNL064C) | The level of expressed mRNA in the presence of chemical substance/ (ratio to absence of chemical substance) (yeast gene YNR076W) | The level of expressed mRNA in the presence of chemical substance/The level of expressed mRNA in the absence of chemical substance (yeast gene YOR124C) | The level of expressed mRNA in the presence of chemical substance/The level of expressed mRNA in the absence of chemical substance (yeast gene YOR288C) | The level of expressed mRNA in the presence of chemical substance/The level of expressed mRNA in the absence of chemical substance (yeast gene YPL089C) | The level of expressed mRNA in the presence of chemical substance/The level of expressed mRNA in the absence of chemical substance (yeast gene YPL154C)
